Data: article PMC3629081, “Tetrahydropyrazolo[1,5-a]Pyrimidine-3-Carboxamide and N-Benzyl-6′,7′-Dihydrospiro[Piperidine-4,4′-Thieno[3,2-c]Pyran] Analogues with Bactericidal Efficacy against Mycobacterium tuberculosis Targeting MmpL3” (PLoS ONE, 2013)
In brackets after ≈: the same amount, converted by molar mass. Several values for one entry are separate records, joined by “and”; a condition that tells them apart may be missing. Equal entries are not always repeated. Where two headings read alike, the source gives them in different places. Marks after values point to notes of the source that are not given here.

Assays:
M. tuberculosis H37Rv [1] = test: MIC determination against M. tuberculosis H37Rv (resazurin); assay type: cell-based, Mycobacterium tuberculosis
[2] = test system: clinical M. tuberculosis isolates; test: MIC against clinical strains (BACTEC MGIT 960); assay type: cell-based, Mycobacterium tuberculosis; conditions: for MIC90: Mycobacterium tuberculosis, read-out: M. tuberculosis MIC90 (108 strains)
[3] = test system: GFP expressing M. tuberculosis H37Rv in Raw264.7 macrophages; test: microbe, parasite or virus in culture; assay type: cell-based, Mycobacterium tuberculosis; conditions: read-out: Intracell. H37Rv MIC80
[4] = test system: panel of Gram-positive and Gram-negative organisms; test: General antimicrobial activity assay (broth microdilution); assay type: cell-based; conditions: read-out: Antibacterial panel IC50
Experimental: Whole-cell antimicrobial activity was determined by broth microdilution using the Clinical and Laboratory Standards Institute (CLSI) recommended procedure, Document M7-A7, “Methods for Dilution Susceptibility Tests for Bacteria that Grow Aerobically”. Some compounds have been evaluated against a panel of Gram-positive and Gram-negative organisms, including Enterococcus faecium, Enterococcus faecalis, Haemophilus influenzae, Moraxella catarrhalis, Streptococcus pneumoniae, Escherichia coli and Streptococcus pyogenes. The MIC was determined as the lowest concentration of compound producing a >80 % reduction in fluorescence observed.

HepG2 cells = assay type: cell-based, human; conditions: for HepG2 Tox50: 48 h incubation
Experimental: Cytotoxicity assay was performed measuring the viability of immortalized human cell line culture (HepG2) after 48 h of incubation with a full curve concentration of the test substances in culture medium. For read out of viability of cells we used Resazurine (BDH®). Resazurin is used as an oxidation-reduction indicator that yields a colorimetric change and a fluorescent signal in response to metabolic activity. As cell grow, metabolic activity results in a chemical reduction of Resazurin indicated by a change from non-fluorescent blue to the reduced fluorescent pink form. The degree of Resazurin fluorescence is therefore, an indicator of the number of viable cells in the culture system. The cytotoxicity results were expressed as Tox50 values (IC50). This was done by calculating the concentration of test compounds that would result in a decrease in Resazurin reduction equivalent to 50% of the concurrent control values. The protocol we followed is described below briefly.
Cell line HepG2 (HB-8065) were cultured with fresh medium (Essential Minimum Eagle Medium, EMEM, supplemented with 5% fetal calf serum and 2 mM L-glutamine) the day before subculturing the plates. On the day of the assay, cells (10,000 cells/well) were seeded in a black 96-well collagen coated microplate with clear bottom, (Becton Dickinson®) except in column 11, that was dispensed only 100 μL of culture medium.
Stock solution from each test substances was prepared in 100% DMSO. Ten serial 1∶2 dilutions were prepared of each test compound and, finally, a 1∶200 dilution was made, in medium, to achieve a final concentration of 0.5% of DMSO. Resazurin tablets (Merck®) were dissolved in phosphate buffer saline at a concentration of 0.0042%.
After 24 h of incubation of the cells (37°C, 5% CO2, 95% relative humidity), a volume of 150 μL of culture medium containing the appropriate test concentrations of the compounds dilutions were added to cells in two replicates. In column 12, only 150 μL of 0.5% DMSO was added (blank control). Then, cells were exposed to test compounds for 48 h. After that, medium was removed and Resazurin solution was added to each well and incubated for further 1.5 h. Fluorescence was measured at an excitation wavelength of 515 nm and an emission wavelength of 590 nm in a Microplate reader 1420 Multilabel HTS counter, Victor 2, (Wallac®) The fluorescence value of each well is corrected by subtracting the background value (average of column 11) from the absolute value. The percentages of inhibition are calculated relatively to the DMSO control wells (average of column 12). For each compound, the average value of the duplicate samples is calculated. Data were processed using an Excel spreadsheet and GraphPad Software analysis. Tox50 values were calculated from the Sigmoidal dose-response (variable slope) curves by nonlinear regression analysis.

[5] = assay type: in vitro ADME, mouse
Experimental: (§1) Pooled mouse, rat, dog and human liver microsomes were purchased from Xenotech. Microsomes (final protein concentration 0.5 mg/ml, MgCl2 (final concentration 5 mM) and test compound (final substrate concentration 0.5 µM; final DMSO concentration 0.5 %) in 0.1 M phosphate buffer pH 7.4 were pre-incubated at 37°C prior to the addition of NADPH (final concentration 1 mM) to initiate the reaction. The final incubation volume was 600 µl. Control incubation was included for each compound tested where 0.1 M phosphate buffer pH 7.4 was added instead of NADPH (minus NADPH). One control compound was included with each species. All incubations were performed singularly for each test compound. Each compound was incubated for 30 minutes and samples (90 µl) of incubate were taken at 0, 5, 10, 20 and 30 minutes. The control (minus NADPH) was sampled at 0 and 30 minutes only. The reactions were stopped by the addition of sample to 200 µl of acetonitrile:methanol (3∶1) containing an internal standard. The terminated samples were centrifuged at 3700 rpm for 15 minutes at 4°C to precipitate the protein. Quantitative analysis: following protein precipitation, the samples were analyzed using specific LC-MS/MS conditions. Data analysis: from a plot of ln peak area ratio (compound peak area/internal standard peak area) against time, the gradient of the line was determined. Subsequently, half-life and intrinsic clearance were calculated using the equations below:
(§2) Elimination rate constant (k) = (-gradient) Half life [drawing 1]
(§3) Intrinsic Clearance (CLint) (ml/min/g protein) = [drawing 2] where V = Incubation volume ml/g microsomal protein.

[6] = assay type: in vitro ADME, human; conditions: for Cli human: human microsomes
Experimental: as §1, §2, §3

M. tuberculosis = test: Killing kinetics assay; assay type: cell-based, Mycobacterium tuberculosis; conditions: for reduction of cfu counts after one week of treatment: 20x MIC; for in vitro killing behaviour: kill rate over 7 days
M. bovis BCG = assay type: cell-based, Mycobacterium bovis BCG
in vivo = test: in vivo; set-up: species or system mice
Experimental: Figure 5 Whole blood pharmacokinetic profile and main parameters of compounds 3 and 4. Compounds were given orally at 50 mg/Kg suspension in 1% aqueous methylcellulose. Main pharmacokinetic parameters were established after non-compartimental analysis. AUC: Area Under the Curve; Cmax: Maximum concentration observed in whole blood; %F: percentage bioavailability. TEXT PRINTED IN THE PICTURE: 3: Tmax (h): 3.0 ± 2.8 (Dose (mg/kg): 50); Cmax (μg/ml): 1.8 ± 0.5 (Dose (mg/kg): 50); AUC0-24h (μg*h/ml): 26.2 ± 9.4 (Dose (mg/kg): 50); DNAUC0-24h (μg*h/ml per mg/kg): 0.6 ± 0.2 (Dose (mg/kg): 50); %F: 96.1 ± 32.2 (Dose (mg/kg): 50) | 4: Tmax (h): 0.7 ± 0.1 (Dose (mg/kg): 50); Cmax (μg/ml): 1.3 ± 0.2 (Dose (mg/kg): 50); AUC0-24h (μg*h/ml): 8.7 ± 0.6 (Dose (mg/kg): 50); DNAUC0-24h (μg*h/ml per mg/kg): 0.20 ± 0.01 (Dose (mg/kg): 50); %F: 54.6 ± 5.4 (Dose (mg/kg): 50)
Experimental compounds were administered by oral gavage at 50 mg/kg single dose at a volume of 20 ml/kg to n = 5 mice. All mice received treatment in the fed state. Peripheral total blood was the compartment chosen for the establishment of compound concentrations: 25 μl of blood was taken from the lateral tail vein for each mouse at 15, 30 and 45 minutes, 1, 2, 4, 8 and 24 hours. LC-MS was used as the analytical method of choice for the establishment of compound concentration in blood with a sensitivity of LLQ = 1–5 ng/ml in 25 µl blood. The non-compartmental data analysis (NCA) was performed with WinNonlin Phoenix 6.3 (Pharsight, Certara L.P) and supplementary analysis was performed with GraphPad Prism 5 (GraphPad Software, Inc).

M. tuberculosis H37Rv [7] = test: In vivo efficacy in acute TB murine model; set-up: species or system Mycobacterium tuberculosis
[8] = in words
[9] = Sensitive phenotype, 60 strains
[10] = monoR H (Isoniazid), 20 strains
[11] = monoR Rf (Rifampicin), 3 strains
[12] = monoR Sm (Streptomycin), 11 strains
[13] = Mycobacterium tuberculosis, H37RV

| SMILES | MIC (M. tuberculosis H37Rv [1]; Mycobacterium tuberculosis) [µM] | Range of MIC's [2] | MIC90 [2] [µM] | Range of MIC's [2, 9] [µM] | Range of MIC's [2, 10] [µM] | Range of MIC's [2, 11] [µM] | Range of MIC's [2, 12] [µM] | MIC80 [3, 13] [µM] | IC50 [4] [µM] | HepG2 Tox50 (HepG2 cells) | Cli mouse ([5]; mouse microsomes) [mL/min/g] | Cli human [6] [mL/min/g] | reduction of cfu counts after one week of treatment (M. tuberculosis) [log cfu] | in vitro killing behaviour (M. tuberculosis) | effect on TMM in [14C]-labelled cultures (M. bovis BCG) | effect on other classes of lipids, in particular phospholipids (M. bovis BCG) | solubility (physchem) [µM] | also measured |
| --- | --- | --- | --- | --- | --- | --- | --- | --- | --- | --- | --- | --- | --- | --- | --- | --- | --- | --- |
| c1cc2c(s1)CCOC21CCN(Cc2ccc3c(c2)OCCO3)CC1 [Compound 2] | 0.3 (≈ 0.107 µg/mL) | 0.3 to 1.25 µM | 0.6 (≈ 0.214 µg/mL) | 0.3 to 1.25 | 0.3 to 10 | 0.6 to 10 | 0.3 to 10 | 0.63 (≈ 0.225 µg/mL) | ≥ 16 | 36 µM | >30 | 25 | > 3 | bactericidal | accumulation of TMM | unaffected | 266 (≈ 95.1 µg/mL) | intrinsic clearance values in mice microsomes ([5]; in words): poor; intrinsic clearance values in human microsomes ([6]; in words): poor |
| CCc1ccc([C@H]2C[C@@H](C(F)(F)F)n3ncc(C(=O)NCc4ccc5c(c4)OCO5)c3N2)cc1 [Compound 3] | < 0.5 |  |  |  |  |  |  |  |  | > 25 µM | 0.8 |  |  |  |  |  |  | MIC (M. tuberculosis H37Rv [1]): 0.16 µM (≈ 0.0756 µg/mL); MIC80 [3]: 0.31 µM (≈ 0.146 µg/mL); DNAUC0-24h (in vivo; mice, oral 50 mg/kg, whole blood): 0.6 ± 0.2 μg*h/ml per mg/kg; AUC(0-t) (in vivo; mouse, in vivo, po, 50 mg/kg, mice, oral 50 mg/kg, whole blood, read-out: AUC0-24h): 26.2 ± 9.4 µg·h/mL; AUC(0-t) (in vivo; mouse, in vivo, po, 50 mg/kg, po 50 mg/kg (Figure 4), read-out: AUC 24h): 26.5 µg·h/mL; AUC (in vivo; mouse, in vivo, po, 50 mg/kg, minimum requirement fulfilled, read-out: AUC after oral administration 50 mg/kg): > 1 µg·h/mL; bioavailability (in vivo; mouse, in vivo, mice, oral 50 mg/kg, whole blood, read-out: %F): 96.1 ± 32.2%; Cmax (in vivo; mouse, in vivo, mice, oral 50 mg/kg, whole blood, read-out: Cmax): 1.8 ± 0.5 µg/mL; Tmax (in vivo; mouse, in vivo, mice, oral 50 mg/kg, whole blood, read-out: Tmax): 3 ± 2.8 h; reduction in lung bacterial load (M. tuberculosis H37Rv [7]; 100 mg/kg orally once a day, day 1 to day 8, B6 mice): 1.5 log units; reduction in lung bacterial load (M. tuberculosis H37Rv [7]; 300 mg/kg orally once a day, day 1 to day 8, B6 mice): 2.2 log units |
| CCc1ccc([C@H]2C[C@@H](C(F)(F)F)n3ncc(C(=O)NCc4ccc(OC)cc4)c3N2)cc1 [Compound 1, (5R,7S)-5-(4-ethylphenyl)-N-(4-methoxybenzyl)-7-(trifluoromethyl)-4,5,6,7-tetrahydropyrazolo[1,5-a]pyrimidine-3-carboxamide] | 0.3 (≈ 0.138 µg/mL) | 0.16 to 2.5 µM and 0.3 to 5 µM | 0.6 (≈ 0.275 µg/mL) | 0.16 to 0.6 | 0.16 to 0.6 | 0.16 to 0.3 | 0.16 to 0.6 | 0.16 (≈ 0.0734 µg/mL) | ≥ 32 | >25 ^* µM | 0.69 | 0.29 | > 3 | bactericidal | accumulation of TMM | unaffected | 5 (≈ 2.29 µg/mL) | signs of cytotoxicity at the maximum concentration tested (HepG2 cells; maximum concentration where compound was in solution): did not show initial signs of cytotoxicity; solubility in different media [8]: very low solubility |
| Cl.FC(F)(F)Oc1ccc(Oc2ccc(CN3CCC4(CC3)OCCc3sccc34)cc2)cc1 [Compound 4] |  |  |  |  |  |  |  |  |  | 36 µM |  |  |  |  |  |  |  | Cli mouse ([5]; mouse, pH 7.4): 1.2 mL/min/g; AUC (in vivo; mouse, in vivo, po, 50 mg/kg): > 1 µg·h/mL; Cmax (in vivo; mouse, in vivo, po, 50 mg/kg): 1.3 ± 0.2 µg/mL; DNAUC0-24h (in vivo; mouse, in vivo, po, 50 mg/kg): 0.20 ± 0.01 μg*h/ml per mg/kg; Tmax (in vivo; mouse, in vivo, po, 50 mg/kg): 0.7 ± 0.1 h; bioavailability (in vivo; mouse, in vivo, po, 50 mg/kg): 54.6 ± 5.4%; AUC(0-t) (in vivo; mouse, in vivo, po, 50 mg/kg, AUC0-24h): 8.7 ± 0.6 µg·h/mL; AUC(0-t) (in vivo; mouse, in vivo, po, 50 mg/kg, AUC 24h): 8.7 µg·h/mL; reduction in lung bacterial load (M. tuberculosis H37Rv [7]; in vivo): 2.3 log units and 2.7 log units |
